Assay results from US20050107405A1, “Pharmaceutical composition for alleviating pain or spasticity in a patient suffering from spinal cord injury” (priority 2003, published 2005).
“Also recorded” adds a separate entry of the source.

Experiments:
[1] = test system: pain or spasticity in patients suffering from spinal cord injury; test: Administration of sildenafil citrate (50 mg VIAGRA tablet) to three male patients with spinal cord injury; type: in vivo, human; conditions: for Effect of alleviating pain or spasticity caused by spinal cord injury (in words): patients with spinal cord injury (Patients 1 to 3), comparison with customary analgesics
Protocol: Sildenafil citrate was administered to three male patients of ages 30-73, who have sexual dysfunction and somatic pain. Patient 1: 7th thoracic vertebrae injury and complete paraplegia. […] Erectile dysfunction. Every day behavior: Wheel chair. Patient 2: 12th thoracic vertebrae injury and complete paraplegia. […] Erectile dysfunction. Every day behavior: Wheel chair. Patient 3: 6th cervical vertebrae injury and incomplete quadriplegia. They were constantly suffering from limb pain and spasticity. Erectile dysfunction. Every day behavior: Wheel chair. Patients 1 to 3 were dosed with a 50 mg tablet of […]® in the unit dosage form when feeling pain or spasticity.

[2] = test system: peripheral nociception; conditions: potentiated by sodium nitroprasside and L-arginine; cited from earlier work
[3] = test system: nociception; conditions: alone and with diclofenac; cited from earlier work
[4] = test system: morphine-induced antinociception; conditions: with morphine; cited from earlier work
[5] = Patient 1, Th7 complete paraplegia, 50 mg tablet
[6] = Patient 1, Th7 complete paraplegia, 50 mg tablet, monocitrate
[7] = Patient 2, Th12 complete paraplegia, 50 mg tablet, monocitrate
[8] = Patient 3, C6 incomplete quadriplegia, 50 mg tablet, monocitrate

With `O=C(O)Cc1ccccc1Nc1c(Cl)cccc1Cl` [diclofevac sodium] as the compound, how does the “Effect of alleviating pain or spasticity caused by spinal cord injury (in words)” value (shortened to “Effect … (in words)”) [1] read?
Its value is “no effects of alleviating pain or spasticity could be found”.

What about the “Effect … (in words)” value ([1]; listed as Voltaren) of the same compound?
The value was “does not have any analgesic effects”.

With `CC(C(=O)O)c1ccc(CC2CCCC2=O)cc1` (stereo not shown) [loxoprofen sodium] as the compound, how does the “Effect … (in words)” value [1] read?
Its value is “no effects of alleviating pain or spasticity could be found”.

What about the “Effect … (in words)” value ([1]; listed as Loxonin) of the same compound?
Its value is “does not have any analgesic effects”.

Which “Emerging Time of Effect After Administration” value [1, 5] does the source give for `CCCc1nn(C)c2c(=O)[nH]c(-c3cc(S(=O)(=O)N4CCN(C)CC4)ccc3OCC)nc12.O=C(O)CC(O)(CC(=O)O)C(=O)O` [sildenafil citrate, 1-[[3-(6,7-dihydro-1-methyl-7-oxo-3-propyl-1H-pyrazolo[4,3-d]pyrimidin-5-yl)-4-ethoxyphenyl]sulfonyl]-4-methylpiperazine monocitrate] here?
Its value is 30 min.

What about the “Time until side effect (light heat sensation) disappeared” value [1, 5] of the same compound?
Its value is “two to three”.

What about the “Duration of Effects” value [1, 6] of the same compound?
The value was “around half; also recorded: half day”.

What about the “Improvement of Erectile Dysfunction” value [1, 6] of the same compound?
Its value is “improved and Yes”.

What about the “Side Effects” value [1, 6] of the same compound?
Its value is “Light heat sensation”.

And the “Effects of alleviating pain or spasticity” value ([1]; Patient 2, Th12 complete paraplegia, 50 mg tablet)?
Its value is “by about 30%”.

What about the “Duration of Effects” value [1, 7] of the same compound?
Its value is “around one; also recorded: about one day”.

And the “Emerging Time of Effect After Administration” value [1, 7]?
The value was “around one; also recorded: one hour”.

What about the “Improvement of Erectile Dysfunction” value [1, 7] of the same compound?
Its value is “not improved and No”.

And the “Side Effects” value [1, 7]?
The value was “No side effect was observed and No”.

What about the “Duration of Effects” value [1, 8] of the same compound?
Its value is 5 to 6 h.

And the “Improvement of Erectile Dysfunction” value [1, 8]?
Its value is “improved and No”.

What about the “Side Effects” value [1, 8] of the same compound?
Its value is “No side effect was observed and No”.

What about the “Effect … (in words)” value [1] of the same compound?
The value was “significantly alleviates the pain or spasticity”.

What about the “Alleviation of the pain or spasticity” value ([1]; summary over Patients 1 to 3, 50 mg) of the same compound?
The value was 20 to 50%.

What does the source list for `CCCc1nn(C)c2c(=O)[nH]c(-c3cc(S(=O)(=O)N4CCN(C)CC4)ccc3OCC)nc12` [sildenafil, 5-[2-ethoxy-5-(4-methyl-1-piperazinylsulphonyl)phenyl]-1-methyl-3-n-propyl-1,6-dihydro-7H-pyrazolo[4,3-d]pyrimidin-7-one]?
Antinociception [2]: induces antinociception; Antinociceptive activity [3]: produces antinociceptive activity, and increases that of diclofenac; Effect on morphine-induced antinociception [4]: significantly increases the morphine-induced antinociception
